Data taken from article PMC9598926, “Design and Synthesis of (Z)-5-(Substituted benzylidene)-3-cyclohexyl-2-thioxothiazolidin-4-one Analogues as Anti-Tyrosinase and Antioxidant Compounds: In Vitro and In Silico Insights” (Antioxidants, 2022).

Tests used:
Assay type in all cases: cell-based, murine
B16F10 cells = assay: Melanin content analysis in α–MSH plus IBMX stimulated B16F10 cells
Procedure: 2.10. Melanin Content Analysis Melanin content assays were performed to determine the effects of analog 3 on cellular melanin formation, as previously described with minor modification. […] Briefly, cultured B16F10 cells were seeded in 6-well culture plates at 1 × 10^4 cells/well and incubated for 12 h under culture conditions to allow them to adhere to well bottoms. […] Cells were then washed twice with PBS and detached from wells by incubation with Trypsin/EDTA. After centrifugation, detached cell pellets were dissolved in 1N–NaOH solution (100 µL), incubated for 1 h at 60 °C, and mixed to solubilize melanin released by cells. The ability of analog 3 to inhibit melanin production was determined by measuring well optical densities (ODs) at 405 nm using a microplate reader (VersaMax®, Molecular Devices, Sunnyvale, CA, USA). Melanin contents were calculated by dividing the ODs of samples by the control OD. Experiments were conducted independently 3 times. […] Thus, B16F10 cells were treated with analog 3 (0, 5, 10, or 20 µM) for 1 h and then stimulated with α–MSH (1 µM) plus IBMX (200 µM) for 72 h. Melanin contents were assessed by measuring optical densities at 405 nm.

MITF = assay: Western blot of nuclear MITF in α–MSH/IBMX stimulated B16F10 cells; details: 5, 10, 20 µM
Procedure: 2.15. Extraction of Cytosolic and Nuclear Proteins from Cells
Western blotting was used to determine tyrosinase and MITF protein levels. Briefly, B16F10 cells were seeded in 60 mm culture dishes in the presence or absence of α–MSH (1 µM) plus IBMX (200 µM) with or without analog 3 (5, 10, and 20 µM for final concentrations) for 24 h, washed twice with ice-cold PBS and centrifuged for 10 min at 12,000× g. Cell pellets were suspended in 10 mM Tris (pH 8.0) containing 0.1% NP-40, 1 mM DTT, 1.5 mM MgCl2, 1 mM PMSF, and protease inhibitors (GenDEPOT, Barker, TX, USA), incubated on ice for 15 min, and centrifuged for 10 min at 12,000× g at 4 °C. Supernatants were used as cytosolic fractions. […] The protein concentrations were determined using a bicinchoninic acid (BCA)™ assay kit (Pierce, Rockford, IL, USA). […]
Lysed protein samples from cells were boiled for 10 min in sample-loading buffer (0.1% bromophenol blue, 25% glycerol, 60 mM Tris-HCl (pH 6.8), 2% SDS, and 0.5% β-mercaptoethanol) at a volume ratio of 1:4. […] Immunoreactive proteins were detected using the enhanced chemiluminescence (ECL) detection reagent in the SuperSignal® West Pico Chemiluminescent Substrate kit (Advansta, San Jose, CA, USA). Western blot bands were visualized using a Davinch-Chemi imager™ (Davinch-K, Seoul, Korea), and quantification was conducted by densitometric analysis using CS analyzer software ver. […]

tyrosinase = assay: RT-qPCR of tyrosinase mRNA in α–MSH/IBMX stimulated B16F10 cells
Procedure: (§1) 2.17. RNA Extraction and Quantitative Real Time-Polymerase Chain Reaction (RT-qPCR)
(§2) B16F10 cells were extracted using GeneAll RiboEx Total RNA extraction reagent (GeneAll Biotechnology, Seoul, Korea) and transferred to tubes, added with chloroform (0.1 mL), shaken vigorously for 30 sec, and centrifuged for 15 min at 12,000× g. Aqueous phases were transferred to fresh tubes, and equal volumes of isopropanol were added. Samples were then incubated at 4 °C for 10 min and centrifuged for 15 min at 12,000× g at 4 °C. Supernatants were discarded, and RNA pellets were washed once with 0.8 mL of 70% ethanol and by vortexing briefly and centrifuged for 5 min at 7500× g at 4 °C. Pellets were dried at 56 °C for 10–15 min and dissolved in 30 µL of diethyl pyrocarbonate (DEPC)-treated water. The levels of RNA were determined by a Nanodrop spectrophotometer (NANO-200, Allsheng, Hangzhou, China). Complementary DNA (cDNA) was synthesized from total RNA (2 µg) using SuPrime Script RT Premix (with random hexamer) cDNA Synthesis Kit (GeNet Bio, Daejeon, Korea). […]
(§3) To further investigate the anti-melanogenesis mechanism of analog 3, we examined its effect on the expressions of melanogenesis-associated genes and levels of melanogenesis-associated proteins in B16F10 cells. […] Nuclear levels of MITF protein were measured by Western blotting in α–MSH/IBMX-stimulated B16F10 cells. […]

TRP-1 = assay: RT-qPCR of TRP-1 mRNA in α–MSH/IBMX stimulated B16F10 cells
Procedure: as §1, §2, §3

O=C1/C(=C/c2ccc(O)cc2O)SC(=S)N1C1CCCCC1 [Analog 3, (Z)-3-Cyclohexyl-5-(2,4-dihydroxybenzylidene)-2-thioxothiazolidin-4-one]
effect on α–MSH/IBMX-induced melanin contents at 5 µM (B16F10 cells; 5 µM, compared with kojic acid 20 µM): greater effect than kojic acid at 20 µM
effect on α–MSH/IBMX-induced melanin contents at 20 µM (B16F10 cells; 20 µM, 72 h): to the non-treated control level
effect on α–MSH/IBMX-induced melanin content increases (B16F10 cells; 5, 10, 20 µM, 72 h): significantly and dose-dependently reduced
effect on α–MSH/IBMX-induced increases in MITF levels (nuclear protein) (MITF): significantly and concentration-dependently suppressed
effect on expression of tyrosinase (mRNA) (tyrosinase; α–MSH/IBMX stimulated): significantly and concentration-dependently decreased
tyrosinase gene expression (tyrosinase; α–MSH/IBMX stimulated (3.3-fold), 5 µM): 2.6 fold
effect on expression of TRP-1 (mRNA) (TRP-1; α–MSH/IBMX stimulated): significantly and concentration-dependently decreased
TRP-1 gene expression (TRP-1; α–MSH/IBMX stimulated (2.2-fold), 5 µM): 1.3 fold
